In PubChem BioAssay (NCI):
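A five-concentration, 48-hour dose response in 96-well plates underlies each endpoint, interpolated linearly between surrounding concentrations. Definition used: TGI = concentration required for complete inhibition of growth.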

Experiments:
Test in all cases: DTP human tumour cell line panel, 48 h
NCI-H226 lung = system: NCI-H226 lung
SF-268 CNS = system: SF-268 CNS
TK-10 renal = system: TK-10 renal
OVCAR-8 ovarian = system: OVCAR-8 ovarian
RPMI-8226 leukemia = system: RPMI-8226 leukemia
UACC-62 melanoma = system: UACC-62 melanoma
SNB-75 CNS = system: SNB-75 CNS
SR leukemia = system: SR leukemia
HCT-116 colon = system: HCT-116 colon
SK-MEL-5 melanoma = system: SK-MEL-5 melanoma
SW-620 colon = system: SW-620 colon
MDA-N = system: MDA-N
786-0 renal = system: 786-0 renal
SK-MEL-28 melanoma = system: SK-MEL-28 melanoma

| Structure (SMILES) | TGI (NCI-H226 lung) [µM] | TGI (SF-268 CNS) [µM] | TGI (TK-10 renal) [µM] | TGI (OVCAR-8 ovarian) [µM] | TGI (RPMI-8226 leukemia) [µM] | TGI (UACC-62 melanoma) [µM] | TGI (SNB-75 CNS) [µM] | TGI (SR leukemia) [µM] | TGI (HCT-116 colon) [µM] | TGI (SK-MEL-5 melanoma) [µM] | TGI (SW-620 colon) [µM] | TGI (MDA-N) [µM] | TGI (786-0 renal) [µM] | TGI (SK-MEL-28 melanoma) [µM] |
| --- | --- | --- | --- | --- | --- | --- | --- | --- | --- | --- | --- | --- | --- | --- |
| Cc1ccc(NC=O)c(-c2c(N)[nH]c(=S)[nH]c2=O)c1 | > 100 | > 100 | > 100 | > 100 | > 100 | > 100 | > 100 | > 100 | > 100 | > 100 | > 100 | > 100 | > 100 |  |
| CC(=N\N)/C(C)=N/N=C(C)/C(C)=N/N | > 100 | > 100 | > 100 | > 100 | > 100 |  | > 100 | > 100 | > 100 | > 100 | > 100 | > 100 | > 100 | > 100 |
| COC(=O)c1ccc(/C=C2\Oc3ccccc3C2=O)cc1 | > 100 | > 100 | > 100 | > 100 | > 100 | > 100 | > 100 | > 100 | > 100 | > 100 | > 100 | > 100 | > 100 | > 100 |
| O=S(=O)(Nc1nc2ccccc2nc1Nc1ccc2ccccc2c1)c1ccccc1 | > 84.2 | > 67.7 | > 82.7 | > 100 | > 47 | 43.8 | > 73.6 | > 87.4 | 24.8 | 42.6 | > 100 | > 100 | > 100 | > 100 |
| O=C(O)C(O)C(O)C(=O)O (centres undefined) | > 100 | > 100 | > 100 | > 100 | > 100 | > 100 | > 100 | > 100 | > 100 | > 100 | > 100 | > 100 | > 100 | > 100 |
| O=C(/C=C/c1ccccc1)CSc1ncn[nH]1 | > 100 | > 100 | > 100 | > 100 | > 100 | > 100 | > 100 | > 100 | > 100 | > 100 | > 100 | > 100 | > 100 | > 100 |
| O=C(NCCN1CCOCC1)c1cn2c(ccc3sc4ccccc4c(=O)c32)n1 | > 100 | > 100 | > 100 | > 100 | 41.2 |  | 59.4 | > 100 | 29 | 60.6 | 25.3 | > 100 | 40 | > 100 |
| CC1(C)OC2[C@@H](CO[C@@]3([C@@H](O)CCO)OC(C)(C)O[C@@H]23)O1 (some centres undefined) | > 100 | > 100 | > 100 | > 100 | > 100 | > 100 | > 100 | > 100 | > 100 | > 100 | > 100 | > 100 | > 100 | > 100 |
